Assay results published in patent publication US9169254B2, “Spiroimidazolone derivative” (Chugai Seiyaku Kabushiki Kaisha, priority 2009, dated 2015).

Target: T1, human PTH1 receptor (Homo sapiens, UniProt Q03431)
T1 sequence (Q03431 27-593): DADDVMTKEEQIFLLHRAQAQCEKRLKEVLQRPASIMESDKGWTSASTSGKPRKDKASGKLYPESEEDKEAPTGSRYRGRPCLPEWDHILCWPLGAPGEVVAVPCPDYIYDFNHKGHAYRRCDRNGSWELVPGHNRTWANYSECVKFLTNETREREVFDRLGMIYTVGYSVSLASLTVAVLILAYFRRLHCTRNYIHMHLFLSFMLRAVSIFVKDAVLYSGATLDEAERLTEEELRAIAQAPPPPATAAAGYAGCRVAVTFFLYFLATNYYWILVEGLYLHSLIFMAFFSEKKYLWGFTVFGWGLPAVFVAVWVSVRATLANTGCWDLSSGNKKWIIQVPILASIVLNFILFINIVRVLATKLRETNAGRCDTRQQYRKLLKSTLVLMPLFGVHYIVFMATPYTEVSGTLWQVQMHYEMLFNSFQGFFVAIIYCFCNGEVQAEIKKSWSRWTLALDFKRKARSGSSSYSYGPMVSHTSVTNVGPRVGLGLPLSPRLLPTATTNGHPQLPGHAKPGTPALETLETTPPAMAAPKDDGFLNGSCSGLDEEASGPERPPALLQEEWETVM
Test: In vitro cAMP signal activity in HKRK-B7 cells (LLC-PK1 cells overexpressing the human PTH1 receptor)
Assay type: cell-based
Conditions: HKRK-B7 cells; compound at 1×10^−3 M; cAMP produced as percentage of that produced by hPTH(1-34) at 100 nM

cAMP production activity (%)	SMILES
88	Cc1cc(C(=O)N2CCN(C(=O)N(C)C)CC2)cc(C)c1/C=C/S(=O)(=O)N1CCC2(CC1)N=C(c1cccc(OC(F)(F)F)c1)NC2=O [Compound 395, 4-(3,5-dimethyl-4-{(E)-2-[4-oxo-2-(3-trifluoromethoxy-phenyl)-1,3,8-triaza-spiro[4.5]dec-1-ene-8-sulfonyl]-vinyl}-benzoyl)-piperazine-1-carboxylic acid dimethylamide]
85	Cc1cc(C(=O)N2CCN(C(N)=O)CC2)cc(C)c1/C=C/S(=O)(=O)N1CCC2(CC1)N=C(c1cccc(OC(F)(F)F)c1)NC2=O [Compound 396, 4-(3,5-dimethyl-4-{(E)-2-[4-oxo-2-(3-trifluoromethoxy-phenyl)-1,3,8-triaza-spiro[4.5]dec-1-ene-8-sulfonyl]-vinyl}-benzoyl)-piperazine-1-carboxylic acid amide]
126	Cc1cc(C(=O)N2CCN(CCCN(C)C)CC2)cc(C)c1/C=C/S(=O)(=O)N1CCC2(CC1)N=C(c1cccc(OC(F)(F)F)c1)NC2=O [Compound 397, 8-((E)-2-{4-[4-(3-dimethylamino-propyl)-piperazine-1-carbonyl]-2,6-dimethyl-phenyl}-ethenesulfonyl)-2-(3-trifluoromethoxy-phenyl)-1,3,8-triaza-spiro[4.5]dec-1-en-4-one]
52	CN[C@@H]1CCN(C(=O)c2cc(C)c(/C=C/S(=O)(=O)N3CCC4(CC3)N=C(c3cccc(OC(F)(F)F)c3)NC4=O)c(C)c2)C1 [Compound 398, 8-{(E)-2-[2,6-dimethyl-4-((R)-3-methylamino-pyrrolidine-1-carbonyl)-phenyl]-ethenesulfonyl}-2-(3-trifluoromethoxy-phenyl)-1,3,8-triaza-spiro[4.5]dec-1-en-4-one]
64	Cc1cc(C(=O)N2CC[C@@H](N(C)C)C2)cc(C)c1/C=C/S(=O)(=O)N1CCC2(CC1)N=C(c1cccc(OC(F)(F)F)c1)NC2=O [Compound 399, 8-{(E)-2-[4-((R)-3-dimethylamino-pyrrolidine-1-carbonyl)-2,6-dimethyl-phenyl]-ethenesulfonyl}-2-(3-trifluoromethoxy-phenyl)-1,3,8-triaza-spiro[4.5]dec-1-en-4-one]
76	Cc1cc(C(=O)N2CCC(O)CC2)cc(C)c1/C=C/S(=O)(=O)N1CCC2(CC1)N=C(c1cccc(OC(F)(F)F)c1)NC2=O [Compound 400, 8-{(E)-2-[4-(4-hydroxy-piperidine-1-carbonyl)-2,6-dimethyl-phenyl]-ethenesulfonyl}-2-(3-trifluoromethoxy-phenyl)-1,3,8-triaza-spiro[4.5]dec-1-en-4-one]
83	Cc1cc(C(=O)N2CC[C@@H](O)C2)cc(C)c1/C=C/S(=O)(=O)N1CCC2(CC1)N=C(c1cccc(OC(F)(F)F)c1)NC2=O [Compound 401, 8-{(E)-2-[4-((R)-3-hydroxy-pyrrolidine-1-carbonyl)-2,6-dimethyl-phenyl]-ethenesulfonyl}-2-(3-trifluoromethoxy-phenyl)-1,3,8-triaza-spiro[4.5]dec-1-en-4-one]
85	Cc1cc(C(=O)N2CC[C@H](O)C2)cc(C)c1/C=C/S(=O)(=O)N1CCC2(CC1)N=C(c1cccc(OC(F)(F)F)c1)NC2=O [Compound 402, 8-{(E)-2-[4-((S)-3-hydroxy-pyrrolidine-1-carbonyl)-2,6-dimethyl-phenyl]-ethenesulfonyl}-2-(3-trifluoromethoxy-phenyl)-1,3,8-triaza-spiro[4.5]dec-1-en-4-one]
51	Cc1cc(C(=O)N2CCC(O)(CO)CC2)cc(C)c1/C=C/S(=O)(=O)N1CCC2(CC1)N=C(c1cccc(OC(F)(F)F)c1)NC2=O [Compound 403, 8-{(E)-2-[4-(4-hydroxy-4-hydroxymethyl-piperidine-1-carbonyl)-2,6-dimethyl-phenyl]-ethenesulfonyl}-2-(3-trifluoromethoxy-phenyl)-1,3,8-triaza-spiro[4.5]dec-1-en-4-one]
88	Cc1cc(C(=O)N2CC[C@@H](N)C2)cc(C)c1/C=C/S(=O)(=O)N1CCC2(CC1)N=C(c1cccc(OC(F)(F)F)c1)NC2=O [Compound 404, 8-{(E)-2-[4-((R)-3-amino-pyrrolidine-1-carbonyl)-2,6-dimethyl-phenyl]-ethenesulfonyl}-2-(3-trifluoromethoxy-phenyl)-1,3,8-triaza-spiro[4.5]dec-1-en-4-one]
7.7	Cc1cc(C(=O)N2CCC(N(C)C)CC2)cc(C)c1/C=C/S(=O)(=O)N1CCC2(CC1)N=C(c1cccc(OC(F)(F)F)c1)NC2=O [Compound 405, 8-{(E)-2-[4-(4-dimethylamino-piperidine-1-carbonyl)-2,6-dimethyl-phenyl]-ethenesulfonyl}-2-(3-trifluoromethoxy-phenyl)-1,3,8-triaza-spiro[4.5]dec-1-en-4-one]
100	Cc1cc(C(=O)N2C[C@H](NC(C)C)[C@@H](O)C2)cc(C)c1/C=C/S(=O)(=O)N1CCC2(CC1)N=C(c1cccc(OC(F)(F)F)c1)NC2=O [Compound 406, 8-{(E)-2-[4-((3S,4S)-3-hydroxy-4-isopropylamino-pyrrolidine-1-carbonyl)-2,6-dimethyl-phenyl]-ethenesulfonyl}-2-(3-trifluoromethoxy-phenyl)-1,3,8-triaza-spiro[4.5]dec-1-en-4-one]
49	Cc1cc(C(=O)N2CCC(OCCN(C)C)CC2)cc(C)c1/C=C/S(=O)(=O)N1CCC2(CC1)N=C(c1cccc(OC(F)(F)F)c1)NC2=O [Compound 407, 8-((E)-2-{4-[4-(2-dimethylamino-ethoxy)-piperidine-1-carbonyl]-2,6-dimethyl-phenyl}-ethenesulfonyl)-2-(3-trifluoromethoxy-phenyl)-1,3,8-triaza-spiro[4.5]dec-1-en-4-one]
117	Cc1cc(C(=O)N2CC(O)C2)cc(C)c1/C=C/S(=O)(=O)N1CCC2(CC1)N=C(c1cccc(OC(F)(F)F)c1)NC2=O [Compound 408, 8-{(E)-2-[4-(3-hydroxy-azetidine-1-carbonyl)-2,6-dimethyl-phenyl]-ethenesulfonyl}-2-(3-trifluoromethoxy-phenyl)-1,3,8-triaza-spiro[4.5]dec-1-en-4-one]
55	Cc1c(CCS(=O)(=O)N2CCC3(CC2)N=C(c2cccc(OC(F)(F)F)c2)NC3=O)cccc1C(=O)N(C)C [Compound 409, 2,N,N-Trimethyl-3-{2-[4-oxo-2-(3-trifluoromethoxy-phenyl)-1,3,8-triaza-spiro[4.5]dec-1-ene-8-sulfonyl]-ethyl}-benzamide]
96	Cc1c(CCS(=O)(=O)N2CCC3(CC2)N=C(c2cccc(OC(F)(F)F)c2)NC3=O)cccc1C(N)=O [Compound 410, 2-methyl-3-{2-[4-oxo-2-(3-trifluoromethoxy-phenyl)-1,3,8-triaza-spiro[4.5]dec-1-ene-8-sulfonyl]-ethyl}-benzamide]
54	Cc1c(CCS(=O)(=O)N2CCC3(CC2)N=C(c2cccc(OC(F)(F)F)c2)NC3=O)cccc1C(=O)N1CCOCC1 [Compound 411, 8-{2-[2-methyl-3-(morpholine-4-carbonyl)-phenyl]-ethanesulfonyl}-2-(3-trifluoromethoxy-phenyl)-1,3,8-triaza-spiro[4.5]dec-1-en-4-one]
54	Cc1ccc(C(=O)N(C)C)cc1CCS(=O)(=O)N1CCC2(CC1)N=C(c1cccc(OC(F)(F)F)c1)NC2=O [Compound 412, 4,N,N-Trimethyl-3-{2-[4-oxo-2-(3-trifluoromethoxy-phenyl)-1,3,8-triaza-spiro[4.5]dec-1-ene-8-sulfonyl]-ethyl}-benzamide]
56	Cc1ccc(C(=O)N(C)CCO)cc1CCS(=O)(=O)N1CCC2(CC1)N=C(c1cccc(OC(F)(F)F)c1)NC2=O [Compound 413, N-(2-hydroxy-ethyl)-4,N-dimethyl-3-{2-[4-oxo-2-(3-trifluoromethoxy-phenyl)-1,3,8-triaza-spiro[4.5]dec-1-ene-8-sulfonyl]-ethyl}-benzamide]
69	Cc1ccc(C(=O)N2CCN(C)CC2)cc1CCS(=O)(=O)N1CCC2(CC1)N=C(c1cccc(OC(F)(F)F)c1)NC2=O [Compound 414, 8-{2-[2-methyl-5-(4-methyl-piperazine-1-carbonyl)-phenyl]-ethanesulfonyl}-2-(3-trifluoromethoxy-phenyl)-1,3,8-triaza-spiro[4.5]dec-1-en-4-one]
56	CNC(=O)c1ccc(C)c(CCS(=O)(=O)N2CCC3(CC2)N=C(c2cccc(OC(F)(F)F)c2)NC3=O)c1 [Compound 415, 4,N-dimethyl-3-{2-[4-oxo-2-(3-trifluoromethoxy-phenyl)-1,3,8-triaza-spiro[4.5]dec-1-ene-8-sulfonyl]-ethyl}-benzamide]
66	Cc1cc(C(=O)N2CCN(CCO)CC2)ccc1CCS(=O)(=O)N1CCC2(CC1)N=C(c1cccc(OC(F)(F)F)c1)NC2=O [Compound 416, 8-(2-{4-[4-(2-Hydroxy-ethyl)-piperazine-1-carbonyl]-2-methyl-phenyl}-ethanesulfonyl)-2-(3-trifluoromethoxy-phenyl)-1,3,8-triaza-spiro[4.5]dec-1-en-4-one]
